The record followed here is ChEMBL document CHEMBL1909046, “DrugMatrix in vitro pharmacology data”.

Data set [1] is described as follows: DRUGMATRIX: Platelet-Derived Growth Factor (PDGF) radioligand binding (ligand: [125I] PDGF). Particulars: nih3t3; Not Active = under 50% inhibition at 10 µM. Type of data set: cell-based.
Data set [2] has as its target Voltage-gated inwardly rectifying potassium channel KCNH2 (Homo sapiens, UniProt Q12809). As to conditions: hek293. Note: in other assays of this panel Not Active means under 50% inhibition at 10 µM.
The target of data set [3] is Cytochrome P450 2C19 (Homo sapiens, UniProt P33261). As to conditions: bti-tn-5b1-4. Note: in other assays of this panel Not Active means under 50% inhibition at 10 µM.
Data set [4] concerns the target Kappa-type opioid receptor (Homo sapiens, UniProt P41145). The experiment in a line: DRUGMATRIX: Opiate kappa (OP2, KOP) radioligand binding (ligand: [3H] Diprenorphine). Type of data set: cell membranes, HEK293, Membrane. As to conditions: hek293; Not Active = under 50% inhibition at 10 µM.
The target of data set [5] is T1, Substance-K receptor (Homo sapiens, UniProt P21452). Note: in other assays of this panel Not Active means under 50% inhibition at 10 µM.
T1 sequence (P21452 whole entry): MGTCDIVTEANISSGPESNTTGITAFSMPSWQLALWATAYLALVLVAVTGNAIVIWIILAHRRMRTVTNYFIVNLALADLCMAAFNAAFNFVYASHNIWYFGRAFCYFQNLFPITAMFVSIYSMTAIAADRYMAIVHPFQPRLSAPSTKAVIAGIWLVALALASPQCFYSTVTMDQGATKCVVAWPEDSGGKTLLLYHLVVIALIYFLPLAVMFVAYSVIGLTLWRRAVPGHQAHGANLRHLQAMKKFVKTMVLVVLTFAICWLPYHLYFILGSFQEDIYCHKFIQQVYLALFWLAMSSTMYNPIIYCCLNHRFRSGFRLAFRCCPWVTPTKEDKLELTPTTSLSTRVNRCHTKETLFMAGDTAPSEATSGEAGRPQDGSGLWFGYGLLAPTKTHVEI
It is filed as cell membranes, CHO, Membrane. Particulars: cho.

The target of data set [6] is 5-hydroxytryptamine receptor 1B (Rattus norvegicus, UniProt P28564). It is filed as cell membranes, Wistar, Cerebral cortex, Membrane. Note: in other assays of this panel Not Active means under 50% inhibition at 10 µM.
5-hydroxytryptamine receptor 1B, sequence (P28564 whole entry): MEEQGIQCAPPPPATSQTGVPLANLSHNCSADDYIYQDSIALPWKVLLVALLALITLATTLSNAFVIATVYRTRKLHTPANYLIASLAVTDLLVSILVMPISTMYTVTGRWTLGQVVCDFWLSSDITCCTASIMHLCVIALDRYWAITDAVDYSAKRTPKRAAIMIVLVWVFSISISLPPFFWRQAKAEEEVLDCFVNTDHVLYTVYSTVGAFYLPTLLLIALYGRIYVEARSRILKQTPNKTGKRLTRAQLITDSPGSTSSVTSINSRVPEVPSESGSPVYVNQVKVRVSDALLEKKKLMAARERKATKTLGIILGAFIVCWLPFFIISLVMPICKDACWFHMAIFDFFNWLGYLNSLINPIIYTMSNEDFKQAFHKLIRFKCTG

Voltage-gated inwardly rectifying potassium channel KCNH2, sequence (Q12809 whole entry): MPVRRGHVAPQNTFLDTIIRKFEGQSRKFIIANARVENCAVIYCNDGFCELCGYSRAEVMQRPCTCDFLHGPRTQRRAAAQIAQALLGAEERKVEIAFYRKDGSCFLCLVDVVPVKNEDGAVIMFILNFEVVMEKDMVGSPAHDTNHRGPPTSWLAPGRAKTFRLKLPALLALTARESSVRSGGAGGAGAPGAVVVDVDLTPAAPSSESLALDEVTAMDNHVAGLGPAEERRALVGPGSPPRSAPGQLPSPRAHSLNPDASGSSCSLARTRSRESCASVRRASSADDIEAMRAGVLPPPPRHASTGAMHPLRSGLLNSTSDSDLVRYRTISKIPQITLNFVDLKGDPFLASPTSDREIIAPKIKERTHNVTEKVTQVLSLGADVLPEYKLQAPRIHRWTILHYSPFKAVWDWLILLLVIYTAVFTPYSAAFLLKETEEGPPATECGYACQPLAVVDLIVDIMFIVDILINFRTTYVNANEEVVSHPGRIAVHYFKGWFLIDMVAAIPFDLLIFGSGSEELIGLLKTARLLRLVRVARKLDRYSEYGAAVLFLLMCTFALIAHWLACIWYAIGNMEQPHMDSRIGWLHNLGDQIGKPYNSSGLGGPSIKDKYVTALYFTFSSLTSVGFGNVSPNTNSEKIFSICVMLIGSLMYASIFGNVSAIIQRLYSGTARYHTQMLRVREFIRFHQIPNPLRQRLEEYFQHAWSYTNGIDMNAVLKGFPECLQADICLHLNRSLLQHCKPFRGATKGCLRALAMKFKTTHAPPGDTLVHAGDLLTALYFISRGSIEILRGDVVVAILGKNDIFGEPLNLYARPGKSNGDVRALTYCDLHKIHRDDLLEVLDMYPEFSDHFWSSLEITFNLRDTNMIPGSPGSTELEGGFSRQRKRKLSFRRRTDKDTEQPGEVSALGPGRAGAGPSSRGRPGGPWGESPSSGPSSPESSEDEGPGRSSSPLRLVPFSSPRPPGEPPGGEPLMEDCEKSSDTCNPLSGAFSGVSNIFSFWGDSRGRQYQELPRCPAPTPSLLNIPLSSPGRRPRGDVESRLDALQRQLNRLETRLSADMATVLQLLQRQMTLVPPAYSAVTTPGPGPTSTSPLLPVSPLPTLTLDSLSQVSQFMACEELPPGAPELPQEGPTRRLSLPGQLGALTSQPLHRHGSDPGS
Kappa-type opioid receptor, sequence (P41145 whole entry): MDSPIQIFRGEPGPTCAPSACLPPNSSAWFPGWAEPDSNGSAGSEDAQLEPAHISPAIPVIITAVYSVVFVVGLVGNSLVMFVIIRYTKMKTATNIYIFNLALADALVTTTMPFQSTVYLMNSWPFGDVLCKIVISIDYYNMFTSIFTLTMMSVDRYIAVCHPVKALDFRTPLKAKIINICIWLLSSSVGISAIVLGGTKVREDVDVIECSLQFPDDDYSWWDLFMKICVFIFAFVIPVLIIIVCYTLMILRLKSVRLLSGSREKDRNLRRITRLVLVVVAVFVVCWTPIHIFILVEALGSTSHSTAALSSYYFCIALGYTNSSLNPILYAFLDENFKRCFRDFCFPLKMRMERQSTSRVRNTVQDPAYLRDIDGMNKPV
Cytochrome P450 2C19, sequence (P33261 whole entry): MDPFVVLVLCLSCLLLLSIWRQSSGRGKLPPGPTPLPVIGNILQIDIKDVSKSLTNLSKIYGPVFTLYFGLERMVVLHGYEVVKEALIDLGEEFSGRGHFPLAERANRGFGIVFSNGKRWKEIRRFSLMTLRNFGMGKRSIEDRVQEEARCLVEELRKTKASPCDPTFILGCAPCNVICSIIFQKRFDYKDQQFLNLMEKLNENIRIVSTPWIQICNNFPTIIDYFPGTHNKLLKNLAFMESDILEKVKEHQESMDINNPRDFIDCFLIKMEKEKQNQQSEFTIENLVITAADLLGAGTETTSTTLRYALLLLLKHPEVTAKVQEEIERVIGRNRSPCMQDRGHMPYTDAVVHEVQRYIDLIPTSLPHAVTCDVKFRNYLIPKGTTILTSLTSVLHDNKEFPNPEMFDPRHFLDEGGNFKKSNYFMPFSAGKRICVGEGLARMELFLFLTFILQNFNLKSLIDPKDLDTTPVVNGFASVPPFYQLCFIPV

Regarding `Cc1cc(O)cc(C)c1Cl` [CHLOROXYLENOL], the IC50 entry in data set [1], in data set [2], in data set [3], in data set [4], in data set [5] and in data set [6] was “Not Active” throughout. Moreover, the Ki result in data set [1], in data set [2] and in data set [3] was “Not Active” in each case.

Consider `CCCNC(=O)NS(=O)(=O)c1ccc(Cl)cc1` [CHLORPROPAMIDE], for which the IC50 result in data set [1], in data set [2], in data set [3], in data set [4], in data set [5] and in data set [6] was “Not Active” throughout. Besides, the Ki entry in data set [1], in data set [2] and in data set [3] was “Not Active” each time.

For the molecule `NS(=O)(=O)c1cc(C2(O)NC(=O)c3ccccc32)ccc1Cl` (stereo not given) [CHLORTHALIDONE], the IC50 entry in data set [1], in data set [2], in data set [3], in data set [4], in data set [5] and in data set [6] was “Not Active” each time. Also, the Ki entry in data set [1], in data set [2] and in data set [3] was “Not Active” each time.

Take `O=C(O)CC(O)(CC(=O)O)C(=O)O` [CITRIC ACID]: the IC50 result in data set [1], in data set [2], in data set [3], in data set [4], in data set [5] and in data set [6] was “Not Active” throughout. Further, the Ki result in data set [1], in data set [2] and in data set [3] was “Not Active” in each case.

In the case of `CC(C)NCC(O)c1ccccc1Cl` (stereo not given) [CLORPRENALINE], the IC50 entry in data set [1], in data set [2], in data set [3], in data set [4], in data set [5] and in data set [6] was “Not Active” in each case. In addition, the Ki entry in data set [1], in data set [2] and in data set [3] was “Not Active” throughout.

In the case of `CN1CCN(C(c2ccccc2)c2ccccc2)CC1` [CYCLIZINE], the 50% inhibitory concentration (IC50) result in data set [1], in data set [2], in data set [3], in data set [4], in data set [5] and in data set [6] was “Not Active” throughout. For the same molecule, the Ki entry in data set [1], in data set [2] and in data set [3] was “Not Active” throughout.

As to `CN1C[C@@H]2C[C@H]1CN2c1cc2c(cc1F)c(=O)c(C(=O)O)cn2C1CC1` [DANOFLOXACIN], the IC50 result in data set [1], in data set [2], in data set [3], in data set [4], in data set [5] and in data set [6] was “Not Active” throughout. For the same molecule, the inhibitory constant (Ki) entry in data set [1], in data set [2] and in data set [3] was “Not Active” in each case.

With `COc1cccc2c1C(=O)c1c(O)c3c(c(O)c1C2=O)C[C@@](O)(C(C)=O)C[C@@H]3O[C@H]1C[C@H](N)[C@H](O)[C@H](C)O1` [DAUNORUBICIN], the IC50 entry in data set [1], in data set [2], in data set [3], in data set [4], in data set [5] and in data set [6] was “Not Active” in each case. Besides, the Ki result in data set [1], in data set [2] and in data set [3] was “Not Active” in each case.

Take `O=C(O)c1cc(-c2ccc(F)cc2F)ccc1O` [DIFLUNISAL]: the IC50 entry in data set [1], in data set [2], in data set [3], in data set [4], in data set [5] and in data set [6] was “Not Active” in each case. The Ki result in data set [1], in data set [2] and in data set [3] was “Not Active” each time.

For the molecule `C[S+](C)[O-]` [DIMETHYL SULFOXIDE], the IC50 result in data set [1], in data set [2], in data set [3], in data set [4], in data set [5] and in data set [6] was “Not Active” throughout. The inhibitory constant (Ki) entry in data set [1], in data set [2] and in data set [3] was “Not Active” each time.

For the molecule `CC1=NN(c2ccccc2)C(=O)C1` [EDARAVONE], the half-maximal inhibitory concentration (IC50) result in data set [1], in data set [2], in data set [3], in data set [4], in data set [5] and in data set [6] was “Not Active” in each case. The Ki result in data set [1], in data set [2] and in data set [3] was “Not Active” in each case.

On to `CC(C)C[C@H]1C(=O)N2CCC[C@H]2[C@]2(O)O[C@](NC(=O)[C@@H]3C=C4c5cccc6[nH]cc(c56)C[C@H]4N(C)C3)(C(C)C)C(=O)N12` [ERGOCRYPTINE], for which the 50% inhibitory concentration (IC50) result in data set [1] is “Not Active”; in data set [2], “Not Active”; in data set [3], “Not Active”; in data set [4], “Not Active”; in data set [5], “Not Active”; in data set [6] (read-out: IC50), 8.2 nM. Further, the Ki result is “Not Active” in data set [1], “Not Active” in data set [2], “Not Active” in data set [3] and 5.02 nM in data set [6] (read-out: Ki).

On to `C[C@]12CC[C@@H]3c4ccc(O)cc4CC[C@H]3[C@@H]1C[C@@H](O)[C@@H]2O` [ESTRIOL], for which the IC50 result in data set [1], in data set [2], in data set [3], in data set [4], in data set [5] and in data set [6] was “Not Active” each time. Besides, the Ki result in data set [1], in data set [2] and in data set [3] was “Not Active” throughout.

Regarding `CC(O)(P(=O)(O)O)P(=O)(O)O` [ETIDRONIC ACID], the IC50 result in data set [1], in data set [2], in data set [3], in data set [4], in data set [5] and in data set [6] was “Not Active” in each case. Moreover, the Ki entry in data set [1], in data set [2] and in data set [3] was “Not Active” throughout.

On to `CN1CCN(c2c(F)cc3c(=O)c(C(=O)O)cn(CCF)c3c2F)CC1` [FLEROXACIN], for which the IC50 entry in data set [1], in data set [2], in data set [3], in data set [4], in data set [5] and in data set [6] was “Not Active” each time. In addition, the Ki result in data set [1], in data set [2] and in data set [3] was “Not Active” in each case.

With `O=c1[nH]c(=O)n([C@H]2C[C@H](O)[C@@H](CO)O2)cc1F` [FLOXURIDINE], the IC50 result in data set [1], in data set [2], in data set [3], in data set [4], in data set [5] and in data set [6] was “Not Active” each time. For the same molecule, the Ki entry in data set [1], in data set [2] and in data set [3] was “Not Active” each time.

Consider `COC(=O)Nc1nc2cc(C(=O)c3ccc(F)cc3)ccc2[nH]1` [FLUBENDAZOLE], for which the IC50 entry in data set [1], in data set [2], in data set [3], in data set [4], in data set [5] and in data set [6] was “Not Active” throughout. Moreover, the Ki entry in data set [1], in data set [2] and in data set [3] was “Not Active” each time.

In the case of `CC(=O)OCC(=O)[C@@]1(O)CC[C@H]2[C@@H]3CCC4=CC(=O)CC[C@]4(C)[C@@]3(F)[C@@H](O)C[C@@]21C` [FLUDROCORTISONE ACETATE], the IC50 result in data set [1], in data set [2], in data set [3], in data set [4], in data set [5] and in data set [6] was “Not Active” each time. In addition, the Ki result in data set [1], in data set [2] and in data set [3] was “Not Active” throughout.

For `CCOC(=O)c1ncn2c1CN(C)C(=O)c1cc(F)ccc1-2` [FLUMAZENIL], the IC50 result in data set [1], in data set [2], in data set [3], in data set [4], in data set [5] and in data set [6] was “Not Active” throughout. Besides, the Ki result in data set [1], in data set [2] and in data set [3] was “Not Active” throughout.

`O=C(O)P(=O)(O)O` [FOSCARNET]: the IC50 result in data set [1], in data set [2], in data set [3], in data set [4], in data set [5] and in data set [6] was “Not Active” each time. The Ki entry in data set [1], in data set [2] and in data set [3] was “Not Active” each time.

With `Cc1ccc(C)c(OCCCC(C)(C)C(=O)O)c1` [GEMFIBROZIL], the IC50 result in data set [1], in data set [2], in data set [3], in data set [4], in data set [5] and in data set [6] was “Not Active” in each case. For the same molecule, the Ki result in data set [1], in data set [2] and in data set [3] was “Not Active” throughout.

In general, IC50 refers to the concentration needed to halve the response being measured. A word on the Ki: it is a measure of affinity in units of concentration, obtained from inhibition or displacement.
